From ChEMBL document CHEMBL1127879, “A conformationally restrained series of AT1-selective angiotensin II antagonists” (Bioorg Med Chem Lett, 1994)

target: T1, Angiotensin II receptor (AT-1) type-1 (Rattus norvegicus, UniProt P29089+P25095); test: Binding affinity against Angiotensin II receptor, type 1 using [125I]Sar-Ile8-AII in rat liver membranes; assay type: cell membranes, Membrane
T1 sequence (P29089 whole entry): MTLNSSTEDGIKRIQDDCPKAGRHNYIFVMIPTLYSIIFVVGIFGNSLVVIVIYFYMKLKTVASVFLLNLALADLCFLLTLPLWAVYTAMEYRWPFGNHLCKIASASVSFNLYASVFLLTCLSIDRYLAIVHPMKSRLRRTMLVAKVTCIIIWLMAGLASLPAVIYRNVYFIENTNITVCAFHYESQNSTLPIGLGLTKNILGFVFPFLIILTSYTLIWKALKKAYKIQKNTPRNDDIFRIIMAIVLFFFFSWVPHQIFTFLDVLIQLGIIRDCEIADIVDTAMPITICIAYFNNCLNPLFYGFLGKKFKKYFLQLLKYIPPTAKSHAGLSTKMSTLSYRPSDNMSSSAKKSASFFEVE
T1 sequence (P25095 whole entry): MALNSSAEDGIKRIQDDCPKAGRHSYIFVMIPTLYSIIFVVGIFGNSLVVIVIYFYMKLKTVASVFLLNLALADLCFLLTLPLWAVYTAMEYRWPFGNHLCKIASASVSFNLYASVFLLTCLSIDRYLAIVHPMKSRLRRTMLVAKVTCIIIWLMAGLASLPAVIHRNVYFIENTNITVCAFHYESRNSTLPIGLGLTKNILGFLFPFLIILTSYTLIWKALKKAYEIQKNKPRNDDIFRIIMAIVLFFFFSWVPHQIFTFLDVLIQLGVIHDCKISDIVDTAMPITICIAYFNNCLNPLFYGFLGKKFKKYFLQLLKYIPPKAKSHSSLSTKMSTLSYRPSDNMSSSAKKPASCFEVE

| SMILES | IC50 [nM] |
| --- | --- |
| CCc1nc2c(C)cc(C)nc2n1C1CCc2cc(-c3ccccc3-c3nn[nH]n3)ccc21 (stereo not drawn) | 11 |
| CCCc1nc2c(C)cc(C)nc2n1C1CCc2cc(-c3ccccc3-c3nn[nH]n3)ccc21 (stereo not drawn) | 14 |
| CCc1nc2c(C)cc(C)nc2n1C1CCCCc2cc(-c3ccccc3-c3nn[nH]n3)ccc21 (stereo not drawn) | 220 |
| Cc1cc(C)c2nc(C3CC3)n(C3CCc4cc(-c5ccccc5-c5nn[nH]n5)ccc43)c2n1 (stereo not drawn) | 0.2 |
| CCc1nc2c(C)cc(C)nc2n1C1CCCc2cc(-c3ccccc3-c3nn[nH]n3)ccc21 (stereo not drawn) | 120 |
| CCCCc1nc2c(C)cc(C)nc2n1C1CCc2cc(-c3ccccc3-c3nn[nH]n3)ccc21 (stereo not drawn) | 30 |
| Cc1cc(C)c2nc(C(C)C)n(C3CCc4cc(-c5ccccc5-c5nn[nH]n5)ccc43)c2n1 (stereo not drawn) | 70 |
| CCc1nc2c(C)ccnc2n1C1CCc2cc(-c3ccccc3-c3nn[nH]n3)ccc21 (stereo not drawn) | 120 |
